# Measurements reported in US20100092526A1, “NANOEMULSION THERAPEUTIC COMPOSITIONS AND METHODS OF USING THE SAME” (NanoBio Corporation, priority 2008, published 2010).
# Like-named read-outs stand apart in the source and are kept apart here.
# Experiments:
# Burkholderia cenocepacia = experiment: MIC/MBC against CF isolates (CLSI, alamar blue); details: for MBC / MIC: Burkholderia cenocepacia
# Pseudomonas aeruginosa [1] = experiment: MIC/MBC against CF isolates (CLSI, alamar blue); details: Pseudomonas aeruginosa
# [2] = system: Stenotrophomonas maltophilia; experiment: MIC/MBC of nanoemulsions against gram-negative isolates (CLSI, alamar blue); format: cell-based; details: Stenotrophomonas maltophilia (n = 5); nanoemulsions in the presence of 5 mM EDTA
# Acinetobacter baumannii [3] = experiment: MIC/MBC against clinical isolates (CLSI, alamar blue)
# Pseudomonas aeruginosa [4] = experiment: MIC/MBC of nanoemulsions against gram-negative isolates (CLSI, alamar blue); format: cell-based; details: Pseudomonas aeruginosa (n = 5)
# Klebsiella pneumoniae = experiment: as above; format: cell-based; details: Klebsiella pneumoniae (n = 5)
# Burkholderia cepacia = experiment: as above; format: cell-based; details: Burkholderia cepacia (n = 5), nanoemulsions in the presence of 5 mM EDTA
# Escherichia coli = experiment: as above; format: cell-based; details: Escherichia coli (n = 5)
# Proteus mirabilis = experiment: as above; format: cell-based; details: Proteus mirabilis (n = 5)
# [5] = system: Stenotrophomonas maltophilia; experiment: MIC/MBC against CF isolates (CLSI, alamar blue); details: for MBC / MIC: Stenotrophomonas maltophilia
# Acinetobacter baumannii [6] = experiment: MIC/MBC of nanoemulsions against gram-negative isolates (CLSI, alamar blue); format: cell-based; details: Acinetobacter baumannii (n = 5)
# [7] = Acinetobacter baumannii, Acinetobacter isolate NB31
# [8] = Acinetobacter baumannii, Acinetobacter isolate NB32
# [9] = Acinetobacter baumannii, Acinetobacter isolate NB33
# [10] = Acinetobacter baumannii, Acinetobacter isolate NB34
# [11] = Acinetobacter baumannii, Acinetobacter isolate NB35
# [12] = Acinetobacter baumannii, Acinetobacter isolate NB36
# [13] = Acinetobacter baumannii, Acinetobacter isolate NB37
# [14] = Acinetobacter baumannii, Acinetobacter isolate NB38
# [15] = Acinetobacter baumannii, Acinetobacter isolate NB39
# [16] = Acinetobacter baumannii, Acinetobacter isolate NB40
# [17] = nanoemulsions in the presence of 5 mM EDTA
# [18] = nanoemulsions in the presence of 5 mM EDTA, in µg/mL
# [19] = CF Stenotrophomonas isolate NB41
# [20] = CF Stenotrophomonas isolate NB42
# [21] = CF Stenotrophomonas isolate NB43
# [22] = CF Stenotrophomonas isolate NB44
# [23] = CF Stenotrophomonas isolate NB45
# [24] = CF Stenotrophomonas isolate Steno 1
# [25] = CF Stenotrophomonas isolate Steno 2
# [26] = CF Stenotrophomonas isolate Steno 3
# [27] = CF Stenotrophomonas isolate Steno 4
# [28] = CF Stenotrophomonas isolate Steno 6
# [29] = CF Stenotrophomonas isolate Steno 8
# [30] = Stenotrophomonas, each drug alone
compound,measurement,setting,value
NC[C@H]1O[C@H](O[C@H]2[C@H](O)[C@@H](O[C@H]3O[C@H](CO)[C@@H](O)[C@H](N)[C@H]3O)[C@H](N)C[C@@H]2N)[C@H](N)C[C@@H]1O [Tobramycin],MBC,Burkholderia cenocepacia; CF Burkholderia isolate NB21,> 32 µg/mL
same,MIC,Burkholderia cenocepacia; CF Burkholderia isolate NB21,32 µg/mL
same,MBC,Burkholderia cenocepacia; CF Burkholderia isolate NB22,> 32 µg/mL
same,MIC,Burkholderia cenocepacia; CF Burkholderia isolate NB22,> 32 µg/mL
same,MBC,Burkholderia cenocepacia; CF Burkholderia isolate NB23,> 32 µg/mL
same,MIC,Burkholderia cenocepacia; CF Burkholderia isolate NB23,> 32 µg/mL
same,MBC,Burkholderia cenocepacia; CF Burkholderia isolate NB24,> 32 µg/mL
same,MIC,Burkholderia cenocepacia; CF Burkholderia isolate NB24,> 32 µg/mL
same,MBC,Burkholderia cenocepacia; CF Burkholderia isolate NB25,> 32 µg/mL
same,MIC,Burkholderia cenocepacia; CF Burkholderia isolate NB25,> 32 µg/mL
same,MBC,Burkholderia cenocepacia; CF Burkholderia isolate NB26,> 32 µg/mL
same,MIC,Burkholderia cenocepacia; CF Burkholderia isolate NB26,> 32 µg/mL
same,MBC,Burkholderia cenocepacia; CF Burkholderia isolate NB27,> 32 µg/mL
same,MIC,Burkholderia cenocepacia; CF Burkholderia isolate NB27,> 32 µg/mL
same,MBC,Burkholderia cenocepacia; CF Burkholderia isolate NB28b,4 µg/mL
same,MIC,Burkholderia cenocepacia; CF Burkholderia isolate NB28b,1 µg/mL
same,MBC,Burkholderia cenocepacia; CF Burkholderia isolate NB29,> 32 µg/mL
same,MIC,Burkholderia cenocepacia; CF Burkholderia isolate NB29,> 32 µg/mL
same,MBC,Burkholderia cenocepacia; CF Burkholderia isolate NB30,32 µg/mL
same,MIC,Burkholderia cenocepacia; CF Burkholderia isolate NB30,32 µg/mL
same,MBC 50,"Burkholderia cenocepacia; Burkholderia, each drug alone",>32 µg/mL
same,MBC 90,"Burkholderia cenocepacia; Burkholderia, each drug alone",>32 µg/mL
same,MIC90,"Burkholderia cenocepacia; Burkholderia, each drug alone",>32 µg/mL
same,MIC50,Pseudomonas aeruginosa [1],1 µg/mL
same,MIC90,Pseudomonas aeruginosa [1],16 µg/mL
same,MBC,Pseudomonas aeruginosa [1]; CF Pseudomonas isolate NB1,16 µg/mL
same,MIC,Pseudomonas aeruginosa [1]; CF Pseudomonas isolate NB1,1 µg/mL
same,MBC,Pseudomonas aeruginosa [1]; CF Pseudomonas isolate NB2,2 µg/mL
same,MIC,Pseudomonas aeruginosa [1]; CF Pseudomonas isolate NB2,0.25 µg/mL
same,MBC,Pseudomonas aeruginosa [1]; CF Pseudomonas isolate NB3,4 µg/mL
same,MIC,Pseudomonas aeruginosa [1]; CF Pseudomonas isolate NB3,0.5 µg/mL
same,MBC,Pseudomonas aeruginosa [1]; CF Pseudomonas isolate NB4,4 µg/mL
same,MIC,Pseudomonas aeruginosa [1]; CF Pseudomonas isolate NB4,0.5 µg/mL
same,MBC,Pseudomonas aeruginosa [1]; CF Pseudomonas isolate NB5,4 µg/mL
same,MIC,Pseudomonas aeruginosa [1]; CF Pseudomonas isolate NB5,0.5 µg/mL
same,MBC,Pseudomonas aeruginosa [1]; CF Pseudomonas isolate NB6,4 µg/mL
same,MIC,Pseudomonas aeruginosa [1]; CF Pseudomonas isolate NB6,0.5 µg/mL
same,MBC,Pseudomonas aeruginosa [1]; CF Pseudomonas isolate NB7,> 16 µg/mL
same,MIC,Pseudomonas aeruginosa [1]; CF Pseudomonas isolate NB7,1 µg/mL
same,MBC,Pseudomonas aeruginosa [1]; CF Pseudomonas isolate NB8,8 µg/mL
same,MIC,Pseudomonas aeruginosa [1]; CF Pseudomonas isolate NB8,1 µg/mL
same,MBC,Pseudomonas aeruginosa [1]; CF Pseudomonas isolate NB9,8 µg/mL
same,MIC,Pseudomonas aeruginosa [1]; CF Pseudomonas isolate NB9,1 µg/mL
same,MBC,Pseudomonas aeruginosa [1]; CF Pseudomonas isolate NB10,4 µg/mL
same,MIC,Pseudomonas aeruginosa [1]; CF Pseudomonas isolate NB10,0.5 µg/mL
same,MBC,Pseudomonas aeruginosa [1]; CF Pseudomonas isolate NB11,4 µg/mL
same,MIC,Pseudomonas aeruginosa [1]; CF Pseudomonas isolate NB11,2 µg/mL
same,MBC,Pseudomonas aeruginosa [1]; CF Pseudomonas isolate NB12,8 µg/mL
same,MIC,Pseudomonas aeruginosa [1]; CF Pseudomonas isolate NB12,0.5 µg/mL
same,MBC,Pseudomonas aeruginosa [1]; CF Pseudomonas isolate NB13,4 µg/mL
same,MIC,Pseudomonas aeruginosa [1]; CF Pseudomonas isolate NB13,1 µg/mL
same,MBC,Pseudomonas aeruginosa [1]; CF Pseudomonas isolate NB14,> 32 µg/mL
same,MIC,Pseudomonas aeruginosa [1]; CF Pseudomonas isolate NB14,32 µg/mL
same,MBC,Pseudomonas aeruginosa [1]; CF Pseudomonas isolate NB15,8 µg/mL
same,MIC,Pseudomonas aeruginosa [1]; CF Pseudomonas isolate NB15,0.5 µg/mL
same,MBC,Pseudomonas aeruginosa [1]; CF Pseudomonas isolate NB16,16 µg/mL
same,MIC,Pseudomonas aeruginosa [1]; CF Pseudomonas isolate NB16,2 µg/mL
same,MBC,Pseudomonas aeruginosa [1]; CF Pseudomonas isolate NB17,32 µg/mL
same,MIC,Pseudomonas aeruginosa [1]; CF Pseudomonas isolate NB17,16 µg/mL
same,MBC,Pseudomonas aeruginosa [1]; CF Pseudomonas isolate NB18,> 32 µg/mL
same,MIC,Pseudomonas aeruginosa [1]; CF Pseudomonas isolate NB18,16 µg/mL
same,MBC,Pseudomonas aeruginosa [1]; CF Pseudomonas isolate NB19,16 µg/mL
same,MIC,Pseudomonas aeruginosa [1]; CF Pseudomonas isolate NB19,2 µg/mL
same,MBC,Pseudomonas aeruginosa [1]; CF Pseudomonas isolate NB20,8 µg/mL
same,MIC,Pseudomonas aeruginosa [1]; CF Pseudomonas isolate NB20,0.5 µg/mL
same,MBC,"Pseudomonas aeruginosa [1]; read-out: MBC 50, 20 CF Pseudomonas isolates",8 µg/mL
same,MBC,"Pseudomonas aeruginosa [1]; read-out: MBC 50, second MBC 50 line of the summary, Stenotrophomonas, values equal those of the CF Pseudomonas isolates",8 µg/mL
same,MBC,"Pseudomonas aeruginosa [1]; read-out: MBC 90, 20 CF Pseudomonas isolates",> 16 µg/mL
same,MBC,"Pseudomonas aeruginosa [1]; read-out: MBC 90, second MBC 90 line of the summary, Stenotrophomonas, values equal those of the CF Pseudomonas isolates",> 16 µg/mL
same,MIC50,[2],> 16 µg/mL
same,MIC50,Acinetobacter baumannii [3]; Acinetobacter baumannii,1 µg/mL
same,MIC90,Acinetobacter baumannii [3]; Acinetobacter baumannii,16 µg/mL
same,MBC,Acinetobacter baumannii [3]; [7],1 µg/mL
same,MIC,Acinetobacter baumannii [3]; [7],1 µg/mL
same,MBC,Acinetobacter baumannii [3]; [8],4 µg/mL
same,MIC,Acinetobacter baumannii [3]; [8],1 µg/mL
same,MBC,Acinetobacter baumannii [3]; [9],8 µg/mL
same,MIC,Acinetobacter baumannii [3]; [9],2 µg/mL
same,MBC,Acinetobacter baumannii [3]; [10],> 32 µg/mL
same,MIC,Acinetobacter baumannii [3]; [10],16 µg/mL
same,MBC,Acinetobacter baumannii [3]; [11],16 µg/mL
same,MIC,Acinetobacter baumannii [3]; [11],2 µg/mL
same,MBC,Acinetobacter baumannii [3]; [12],0.5 µg/mL
same,MIC,Acinetobacter baumannii [3]; [12],0.5 µg/mL
same,MBC,Acinetobacter baumannii [3]; [13],2 µg/mL
same,MIC,Acinetobacter baumannii [3]; [13],0.5 µg/mL
same,MBC,Acinetobacter baumannii [3]; [14],16 µg/mL
same,MIC,Acinetobacter baumannii [3]; [14],1 µg/mL
same,MBC,Acinetobacter baumannii [3]; [15],4 µg/mL
same,MIC,Acinetobacter baumannii [3]; [15],2 µg/mL
same,MBC,Acinetobacter baumannii [3]; [16],> 32 µg/mL
same,MIC,Acinetobacter baumannii [3]; [16],> 32 µg/mL
same,MBC,"Acinetobacter baumannii [3]; Acinetobacter baumannii, read-out: MBC 50, 10 Acinetobacter isolates",4 µg/mL
same,MBC,"Acinetobacter baumannii [3]; Acinetobacter baumannii, read-out: MBC 50, Acinetobacter, each drug alone",4 µg/mL
same,MBC 90,"Acinetobacter baumannii [3]; Acinetobacter, each drug alone",>32 µg/mL
same,MIC50,"Acinetobacter baumannii [3]; Acinetobacter, each drug alone",1 µg/mL
same,MIC90,"Acinetobacter baumannii [3]; Acinetobacter, each drug alone",16 µg/mL
same,% resistant,Pseudomonas aeruginosa [4],0.0%
same,% susceptible,Pseudomonas aeruginosa [4],100.0%
same,MIC50,Pseudomonas aeruginosa [4]; [17],0.5 µg/mL
same,MIC Range,Pseudomonas aeruginosa [4]; [18],0.25-1
same,% resistant,Klebsiella pneumoniae,20.0%
same,% susceptible,Klebsiella pneumoniae,80.0%
same,MIC50,Klebsiella pneumoniae; [17],0.25 µg/mL
same,MIC Range,Klebsiella pneumoniae; [18],0.25-16
same,MIC50,Burkholderia cepacia,> 16 µg/mL
same,MIC Range,Burkholderia cepacia; in µg/mL,>16
same,% resistant,Escherichia coli,20.0%
same,% susceptible,Escherichia coli,80.0%
same,MIC50,Escherichia coli; [17],0.5 µg/mL
same,MIC Range,Escherichia coli; [18],0.25-16
same,% resistant,Proteus mirabilis,0.0%
same,% susceptible,Proteus mirabilis,100.0%
same,MIC50,Proteus mirabilis; [17],1 µg/mL
same,MIC Range,Proteus mirabilis; [18],0.25-1
same,MBC,[5]; [19],> 32 µg/mL
same,MIC,[5]; [19],> 32 µg/mL
same,MBC,[5]; [20],> 32 µg/mL
same,MIC,[5]; [20],32 µg/mL
same,MBC,[5]; [21],> 32 µg/mL
same,MIC,[5]; [21],> 32 µg/mL
same,MBC,[5]; [22],> 32 µg/mL
same,MIC,[5]; [22],> 32 µg/mL
same,MBC,[5]; [23],> 32 µg/mL
same,MIC,[5]; [23],> 32 µg/mL
same,MBC,[5]; [24],> 32 µg/mL
same,MIC,[5]; [24],> 32 µg/mL
same,MBC,[5]; [25],> 32 µg/mL
same,MIC,[5]; [25],> 32 µg/mL
same,MBC,[5]; [26],> 32 µg/mL
same,MIC,[5]; [26],> 32 µg/mL
same,MBC,[5]; [27],> 32 µg/mL
same,MIC,[5]; [27],> 32 µg/mL
same,MBC,[5]; [28],32 µg/mL
same,MIC,[5]; [28],16 µg/mL
same,MBC,[5]; [29],> 32 µg/mL
same,MIC,[5]; [29],> 32 µg/mL
same,MBC 50,[5]; [30],>32 µg/mL
same,MBC 90,[5]; [30],>32 µg/mL
same,MIC50,[5]; [30],>32 µg/mL
same,MIC90,[5]; [30],>32 µg/mL
same,% resistant,Acinetobacter baumannii [6],20.0%
same,% susceptible,Acinetobacter baumannii [6],80.0%
same,MIC50,Acinetobacter baumannii [6]; [17],0.5 µg/mL
